# Measurements: patent US20160296511A1, “LAQUINIMOD FOR REDUCING THALAMIC DAMAGE IN MULTIPLE SCLEROSIS” (Teva Pharmaceutical Industries, Ltd., priority 2012, published 2016)
# Test system: subjects with RRMS
# Test: ALLEGRO sub-study: evolution of GdE and new T2 lesions into permanent black holes (PBH), frequent MRI group
# Type: in vivo, human
# Details: for Number of PBH from GdE lesions, adjusted mean (SE) / PBH from GdE lesions, RR (risk ratio) laquinimod vs placebo / Number of PBH from active lesions, adjusted mean (SE) / Number of PBH from new T2 lesions, mean (SE) / PBH from active lesions, RR (risk ratio) laquinimod vs placebo / PBH from new T2 lesions, RR (risk ratio) laquinimod vs placebo: 0.6 mg
# Description: A subset of patients in ALLEGRO comprised a “frequent MRI” group for PBH analysis; these patients had MRIs taken at months 3, 6, 12 and 24. Patients in the frequent MRI group with active lesions at baseline or during the study were included in the PBH analysis. A negative binomial regression analysis was used to estimate the mean number of PBH at months 12 and 24 that evolved from GdE and new T2 lesions detected at various time points in the study in the “frequent MRI” subgroup.
# [1] = PBH at Month 12 from lesions at Baseline
# [2] = PBH at Month 12 from lesions at Month 3
# [3] = PBH at Month 12 from lesions at Months 3 and 6
# [4] = PBH at Month 24 from All lesions
# [5] = PBH at Month 24 from lesions at Baseline
# [6] = PBH at Month 24 from lesions at Month 3
# [7] = PBH at Month 24 from lesions at Months 3, 6, and 12
compound,measurement,setting,value
CCN(C(=O)c1c(O)c2c(Cl)cccc2n(C)c1=O)c1ccccc1 [Laquinimod],"Number of PBH from GdE lesions, adjusted mean (SE)",[1],0.5 (0.16) [26]
same,"PBH from GdE lesions, RR (risk ratio) laquinimod vs placebo",[1],0.53
same,"Number of PBH from GdE lesions, adjusted mean (SE)",[2],0.6 (0.25) [14]
same,"Number of PBH from active lesions, adjusted mean (SE)",[2],0.41 (0.14) [29]
same,"Number of PBH from new T2 lesions, mean (SE)",[2],0.40 (0.15) [28]
same,"PBH from GdE lesions, RR (risk ratio) laquinimod vs placebo",[2],0.58
same,"PBH from active lesions, RR (risk ratio) laquinimod vs placebo",[2],0.44
same,"PBH from new T2 lesions, RR (risk ratio) laquinimod vs placebo",[2],0.52
same,"Number of PBH from GdE lesions, adjusted mean (SE)",[3],0.6 (0.18) [25]
same,"Number of PBH from active lesions, adjusted mean (SE)",[3],0.59 (0.15) [41]
same,"Number of PBH from new T2 lesions, mean (SE)",[3],0.57 (0.16) [40]
same,"PBH from GdE lesions, RR (risk ratio) laquinimod vs placebo",[3],0.45
same,"PBH from active lesions, RR (risk ratio) laquinimod vs placebo",[3],0.42
same,"PBH from new T2 lesions, RR (risk ratio) laquinimod vs placebo",[3],0.48
same,"Number of PBH from GdE lesions, adjusted mean (SE)",[4],1.0 (0.20) [41]
same,"Number of PBH from active lesions, adjusted mean (SE)",[4],1.20 (0.19) [55]
same,"Number of PBH from new T2 lesions, mean (SE)",[4],0.87 (0.17) [51]
same,"PBH from GdE lesions, RR (risk ratio) laquinimod vs placebo",[4],0.45
same,"PBH from active lesions, RR (risk ratio) laquinimod vs placebo",[4],0.51
same,"PBH from new T2 lesions, RR (risk ratio) laquinimod vs placebo",[4],0.52
same,"Number of PBH from GdE lesions, adjusted mean (SE)",[5],0.6 (0.17) [26]
same,"PBH from GdE lesions, RR (risk ratio) laquinimod vs placebo",[5],0.65
same,"Number of PBH from GdE lesions, adjusted mean (SE)",[6],0.6 (0.24) [14]
same,"Number of PBH from active lesions, adjusted mean (SE)",[6],0.47 (0.14) [29]
same,"Number of PBH from new T2 lesions, mean (SE)",[6],0.43 (0.14) [28]
same,"PBH from GdE lesions, RR (risk ratio) laquinimod vs placebo",[6],0.55
same,"PBH from active lesions, RR (risk ratio) laquinimod vs placebo",[6],0.45
same,"PBH from new T2 lesions, RR (risk ratio) laquinimod vs placebo",[6],0.50
same,"Number of PBH from GdE lesions, adjusted mean (SE)",[7],0.7 (0.19) [32]
same,"Number of PBH from active lesions, adjusted mean (SE)",[7],0.95 (0.18) [52]
same,"Number of PBH from new T2 lesions, mean (SE)",[7],0.87 (0.17) [51]
same,"PBH from GdE lesions, RR (risk ratio) laquinimod vs placebo",[7],0.44
same,"PBH from active lesions, RR (risk ratio) laquinimod vs placebo",[7],0.50
same,"PBH from new T2 lesions, RR (risk ratio) laquinimod vs placebo",[7],0.52
same,"Number of PBH evolved from GdE lesions present at baseline, placebo vs laquinimod",at 12 and 24 months,no difference
